Measured values from patent US20250170248A1, “SMARCA DEGRADERS AND USES THEREOF” (Kymera Therapeutics, Inc., priority 2021, published 2025).

Tests used:
SMARCA4 = biological target: T1, SMARCA4 (Homo sapiens, UniProt P51532); test: SMARCA4 Western blot degradation in MV4-11 cells; format: cell-based; details: for Dmax: MV4-11, MV4-11 cells, read-out: SMARCA4 MSD MV411 degradation 24 h: average Dmax %; for Dmax / DC50: 24 h; for DC50 / SMARCA4 MSD MV411 degradation 24 h: average Dmax %: MV4-11 cells; for DC50: read-out: SMARCA4 MSD MV411 degradation 24 h: Mean external-Abs DC50
T1 construct: SMARCA2/SMARCA4 protein degradation selectivity in MV4-11 cells; endogenous in cells; host or cells: MV4-11
T1 sequence (P51532 whole entry): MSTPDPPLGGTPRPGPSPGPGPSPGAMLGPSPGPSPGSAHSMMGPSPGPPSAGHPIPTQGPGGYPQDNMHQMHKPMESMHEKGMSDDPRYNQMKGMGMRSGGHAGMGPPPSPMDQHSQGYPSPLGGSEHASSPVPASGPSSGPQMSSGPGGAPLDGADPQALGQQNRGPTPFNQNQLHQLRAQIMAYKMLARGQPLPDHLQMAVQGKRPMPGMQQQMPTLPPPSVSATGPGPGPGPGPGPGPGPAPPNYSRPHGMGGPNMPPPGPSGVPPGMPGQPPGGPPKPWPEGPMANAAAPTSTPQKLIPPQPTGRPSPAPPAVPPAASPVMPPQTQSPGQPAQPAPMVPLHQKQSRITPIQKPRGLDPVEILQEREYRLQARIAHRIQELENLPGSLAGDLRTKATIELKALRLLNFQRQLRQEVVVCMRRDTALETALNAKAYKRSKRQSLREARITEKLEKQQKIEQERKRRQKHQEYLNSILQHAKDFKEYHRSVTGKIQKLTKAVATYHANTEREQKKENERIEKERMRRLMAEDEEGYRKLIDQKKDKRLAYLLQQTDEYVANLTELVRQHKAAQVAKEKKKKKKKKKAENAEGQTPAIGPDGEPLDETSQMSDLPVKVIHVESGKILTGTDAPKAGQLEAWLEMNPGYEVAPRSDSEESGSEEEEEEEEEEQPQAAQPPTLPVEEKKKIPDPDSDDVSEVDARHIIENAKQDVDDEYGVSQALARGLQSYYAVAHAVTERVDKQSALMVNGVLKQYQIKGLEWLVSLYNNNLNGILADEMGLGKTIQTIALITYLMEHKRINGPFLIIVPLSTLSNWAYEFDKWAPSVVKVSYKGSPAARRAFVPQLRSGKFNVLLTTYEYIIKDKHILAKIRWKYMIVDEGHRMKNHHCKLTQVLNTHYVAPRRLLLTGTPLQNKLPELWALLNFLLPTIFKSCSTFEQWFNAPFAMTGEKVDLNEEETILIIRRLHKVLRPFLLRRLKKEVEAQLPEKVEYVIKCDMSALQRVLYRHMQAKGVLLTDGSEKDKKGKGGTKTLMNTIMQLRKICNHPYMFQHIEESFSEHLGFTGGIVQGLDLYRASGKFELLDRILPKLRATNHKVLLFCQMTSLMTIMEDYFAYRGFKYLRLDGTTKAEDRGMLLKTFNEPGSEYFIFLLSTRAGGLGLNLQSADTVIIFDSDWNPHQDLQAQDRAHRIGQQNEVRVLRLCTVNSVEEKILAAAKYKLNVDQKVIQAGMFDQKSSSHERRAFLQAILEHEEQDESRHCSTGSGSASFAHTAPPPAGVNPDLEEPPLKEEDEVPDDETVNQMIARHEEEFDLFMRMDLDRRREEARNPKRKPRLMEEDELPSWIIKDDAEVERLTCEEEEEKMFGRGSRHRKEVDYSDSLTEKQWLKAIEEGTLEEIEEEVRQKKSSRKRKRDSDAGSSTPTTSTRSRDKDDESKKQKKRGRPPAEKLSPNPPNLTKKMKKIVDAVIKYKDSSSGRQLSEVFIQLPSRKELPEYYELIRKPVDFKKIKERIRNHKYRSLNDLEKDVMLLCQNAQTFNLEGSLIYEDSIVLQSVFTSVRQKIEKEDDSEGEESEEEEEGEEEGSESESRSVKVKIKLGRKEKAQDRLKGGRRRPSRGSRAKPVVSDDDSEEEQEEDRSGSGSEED
Method: Example 11. SMARCA2 and SMARCA4 Western Blot MV4-11 Degradation
Cells were seeded into 6-well plates (MV4-11:4×10^6 cells/well/1 ml) and 1 ml of 2× compound solution was added into the well to make the final concentration and the plates were mixed well and incubated for 24 hours (No cytotoxicity was observed). The cell were collected with media and spun at 3000 rpm for 5 minutes. The supernatant was aspirated and the well and the cells were washed with cold PBS once and combined for centrifugation again; the supernatant aspirated again. 200 uL pre-chilled RIPA lysis buffer (Boston BioProducts BP-115D) with protease/phosphatase inhibitor (Roche 05892791001/Roche 04906837001) was directly added into the tube to lyze the cells for 20 minutes on ice. The cell lysate were collected into EP tubes and spun at 13000 rpm for 20 minutes and 72 uL supernatant was transferred to a fresh EP tube containing 18 μL of 5× loading buffer (Beyotime Bio P0015) to make the loading samples. The samples were heated to 100° C. for 10 minutes and cooled to RT and microcentrifuged. 20 μL of samples were loaded onto SDS-PAGE gel (Novex, WG1402BOX) and the gel was run at 80 V for 20 minutes and 120 V for 1.5 hours. The samples were electrotransfer to a NC membrane using wet-transfer method with 250 mA for 2.5 hours. The membrane was blocked with LICOR blocking buffer (LI COR,927-50000) for 1 hour. The membrane was washed three times with TBST(CST #9997S), 5 minutes each. Incubation was performed with primary antibody prepared in blocking buffer with 0.1% Tween-20 (Solarbio, P8220) at 4° C. overnight (Anti-SMARCA2/BRM antibody (ab15597) 1:500; Anti-BRG1 antibody [EPR3912](ab108318) 1:1000; Rabbit anti-Bafl80 antibody [EPR15860](Abcam,ab196022) 1:1000; mouse anti-beta-Actin (8H10D10) (CST #3700) 1:10000). The membrane was washed three times with TBST, 5 minutes each. Incubation with secondary antibody was performed for 1 hour at RT (anti-rabbit IgG (Licor,926-32211) 1:5000; anti-mouse IgG (LI-COR, 926-68070) 1:5000). The membrane was washed three times with 5 minutes each and lastly the LiCOR was read.
The letter codes for SMARCA2/4 degradation potency (DC50) include: A (<1 nM), B (1-10 nM), C (>10-100 nM), and D (>100 nM). The letter codes for the percentage of SMARCA2/4 degradation after 24 hours (Dmax %) include: A (>90% degradation), B (>70-90% degradation), C (50-70% degradation), and D (<50% degradation). The letter codes of SMARCA2/4 selectivity include: A (>500 fold), B (>100-500 fold), C (10-100 fold), and D (<10 fold). Table 8. SMARCA2/4 Selectivity Results

SMARCA2 = SMARCA2 (Homo sapiens, UniProt P51531); test: SMARCA2 Western blot degradation in MV4-11 cells; format: cell-based; parameters: SMARCA2/SMARCA4 protein degradation selectivity in MV4-11 cells; endogenous in cells; host or cells: MV4-11; details: for Dmax: MV4-11, MV4-11 cells, read-out: SMARCA2 MSD MV411 degradation 24 h: average Dmax %; for Dmax / DC50 / SMARCA2 MSD MV411 degradation 24 h: average Dmax %: 24 h; for DC50 / Selectivity in MV411 / SMARCA2 MSD MV411 degradation 24 h: average Dmax %: MV4-11 cells; for DC50: read-out: SMARCA2 MSD MV411 degradation 24 h: Mean external-Abs DC50; for Selectivity in MV411: SMARCA2/4 selectivity
SMARCA2, sequence (P51531 whole entry): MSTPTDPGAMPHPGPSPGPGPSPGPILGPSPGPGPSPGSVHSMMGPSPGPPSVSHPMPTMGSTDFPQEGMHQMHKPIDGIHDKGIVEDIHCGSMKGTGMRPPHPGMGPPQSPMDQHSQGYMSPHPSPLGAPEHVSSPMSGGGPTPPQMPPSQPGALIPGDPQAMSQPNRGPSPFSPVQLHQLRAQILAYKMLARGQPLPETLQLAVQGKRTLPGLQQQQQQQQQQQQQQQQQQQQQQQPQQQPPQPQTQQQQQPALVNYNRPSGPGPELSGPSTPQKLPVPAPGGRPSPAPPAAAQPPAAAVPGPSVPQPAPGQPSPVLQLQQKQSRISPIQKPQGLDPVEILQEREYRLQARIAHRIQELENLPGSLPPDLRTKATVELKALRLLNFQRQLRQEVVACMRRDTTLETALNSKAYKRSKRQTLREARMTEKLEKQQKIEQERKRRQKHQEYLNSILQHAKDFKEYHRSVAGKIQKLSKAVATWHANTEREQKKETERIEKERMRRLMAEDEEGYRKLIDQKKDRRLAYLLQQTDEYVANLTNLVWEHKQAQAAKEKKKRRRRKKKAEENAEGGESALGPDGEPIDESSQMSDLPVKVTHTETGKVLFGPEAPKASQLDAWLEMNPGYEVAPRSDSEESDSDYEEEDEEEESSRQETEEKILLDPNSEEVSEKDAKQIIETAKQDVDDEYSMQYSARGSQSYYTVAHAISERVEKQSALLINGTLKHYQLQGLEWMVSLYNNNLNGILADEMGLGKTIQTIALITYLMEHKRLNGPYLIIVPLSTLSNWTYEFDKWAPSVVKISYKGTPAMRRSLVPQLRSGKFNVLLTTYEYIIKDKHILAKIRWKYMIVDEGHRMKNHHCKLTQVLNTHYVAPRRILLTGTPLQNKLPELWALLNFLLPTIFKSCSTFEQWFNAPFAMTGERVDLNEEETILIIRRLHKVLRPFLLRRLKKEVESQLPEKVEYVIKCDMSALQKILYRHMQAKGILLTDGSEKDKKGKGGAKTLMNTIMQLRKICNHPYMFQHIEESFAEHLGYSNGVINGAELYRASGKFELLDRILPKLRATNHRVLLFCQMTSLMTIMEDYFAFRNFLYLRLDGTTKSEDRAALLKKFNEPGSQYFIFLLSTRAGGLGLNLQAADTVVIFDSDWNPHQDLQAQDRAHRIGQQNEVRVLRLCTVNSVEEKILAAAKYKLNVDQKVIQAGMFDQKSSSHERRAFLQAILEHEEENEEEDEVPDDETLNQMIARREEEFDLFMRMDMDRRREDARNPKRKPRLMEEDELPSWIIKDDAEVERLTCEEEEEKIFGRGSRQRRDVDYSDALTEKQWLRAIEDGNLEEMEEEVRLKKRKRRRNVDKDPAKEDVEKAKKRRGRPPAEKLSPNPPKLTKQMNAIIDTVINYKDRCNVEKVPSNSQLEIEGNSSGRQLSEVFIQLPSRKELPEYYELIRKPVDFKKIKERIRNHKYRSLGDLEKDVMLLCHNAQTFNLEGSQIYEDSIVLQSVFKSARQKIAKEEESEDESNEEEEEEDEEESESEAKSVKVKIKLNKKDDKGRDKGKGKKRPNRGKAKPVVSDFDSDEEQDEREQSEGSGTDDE

| Dmax (SMARCA4) [%] | DC50 (SMARCA4) [nM] | Dmax (SMARCA2) [%] | DC50 (SMARCA2) [nM] | Selectivity in MV411 (SMARCA2) | SMARCA4 MSD MV411 degradation 24 h: average Dmax % (SMARCA4) | SMARCA2 MSD MV411 degradation 24 h: average Dmax % (SMARCA2) | Compound |
| --- | --- | --- | --- | --- | --- | --- | --- |
| 70 to 90 | 10 to 100 | 70 to 90 | < 1 | C (C (10-100 fold)) | – | – | C#Cc1ccc(CNC(=O)[C@@H]2C[C@@H](O)CN2C(=O)[C@@H](NC(=O)[C@H]2CCC3(CC2)C[C@H](N2CCC(c4cnc(N5CCN6c7cc(-c8ccccc8O)nnc7NC[C@H]6C5)nc4)CC2)C3)C(C)(C)C)cc1 (single isomer, unassigned) [I-25] |
| – | > 100 | – | 1 to 10 | B (B (>100-500 fold)) | C (C (50-70% degradation)) | B (B (>70-90% degradation)) | C#Cc1ccc(CNC(=O)[C@@H]2C[C@@H](O)CN2C(=O)[C@@H](NC(=O)[C@H]2CCC3(CC2)C[C@H](N2CCC(c4cnc(N5CCN6c7cc(-c8ccccc8O)nnc7NC[C@H]6C5)nc4)CC2)C3)C(C)(C)C)cc1 (single isomer, unassigned) [I-26] |
| 70 to 90 | 10 to 100 | > 90 | 1 to 10 | C (C (10-100 fold)) | – | – | Cc1ncsc1-c1ccc(CNC(=O)[C@@H]2C[C@@H](O)CN2C(=O)[C@H](c2cc(N3CC4(CC(N5CCC(c6cnc(N7CCN8c9cc(-c%10ccccc%10O)nnc9NC[C@H]8C7)nc6)CC5)C4)C3)no2)C(C)C)cc1 (single isomer, unassigned) [I-54] |
| > 90 | < 1 | > 90 | < 1 | D (D (<10 fold)) | – | – | Cc1ncsc1-c1ccc(CNC(=O)[C@@H]2C[C@@H](O)CN2C(=O)[C@@H](c2cc(N3CC4(CC(N5CCC(c6cnc(N7CCN8c9cc(-c%10ccccc%10O)nnc9NC[C@H]8C7)nc6)CC5)C4)C3)no2)C(C)C)cc1 (single isomer, unassigned) [I-55] |
| 70 to 90 | 10 to 100 | > 90 | 1 to 10 | C (C (10-100 fold)) | – | – | Cc1ncsc1-c1ccc(CNC(=O)[C@@H]2C[C@@H](O)CN2C(=O)[C@@H](NC(=O)[C@H]2CC3(CC[C@H](N4CCC(c5cnc(N6CCN7c8cc(-c9ccccc9O)nnc8NC[C@H]7C6)nc5)CC4)CC3)C2)C(C)(C)C)cc1 (single isomer, unassigned) [I-65] |
| – | > 100 | – | 10 to 100 | B (B (>100-500 fold)) | D (D (<50% degradation)) | B (B (>70-90% degradation)) | Cc1ncsc1-c1ccc(CNC(=O)[C@@H]2C[C@@H](O)CN2C(=O)[C@@H](NC(=O)[C@H]2CC3(CC[C@H](N4CCC(c5cnc(N6CCN7c8cc(-c9ccccc9O)nnc8NC[C@H]7C6)nc5)CC4)CC3)C2)C(C)(C)C)cc1 (single isomer, unassigned) [I-66] |
| < 50 | > 100 | 70 to 90 | 1 to 10 | A (A (>500 fold)) | – | – | Cc1ncsc1-c1ccc(CNC(=O)[C@@H]2C[C@@H](O)CN2C(=O)[C@@H](NC(=O)[C@H]2CCC3(CC2)C[C@H](N2CCC(c4cnc(N5CCN6c7cc(-c8ccccc8O)nnc7NC[C@H]6C5)nc4)CC2)C3)C(C)(C)C)cc1 (single isomer, unassigned) [I-70] |
| < 50 | > 100 | < 50 | > 100 | C (C (10-100 fold)) | – | – | CC(C)C(C(=O)N1C[C@H](O)C[C@H]1C(=O)NCc1ccc(Cl)cc1)c1cc(N2CC3(CC(N4CCC(c5cnc(N6CCN7c8cc(-c9ccccc9O)nnc8NC[C@H]7C6)nc5)CC4)C3)C2)no1 (stereo partly shown) [I-17] |
| < 50 | > 100 | < 50 | > 100 | C (C (10-100 fold)) | – | – | CC(C)C(C(=O)N1C[C@H](O)C[C@H]1C(=O)NCc1ccc(C#N)cc1)c1cc(N2CC3(CC(N4CCC(c5cnc(N6CCN7c8cc(-c9ccccc9O)nnc8NC[C@H]7C6)nc5)CC4)C3)C2)no1 (stereo partly shown) [I-20] |

The remaining lines, values behind:

| Compound | Dmax (SMARCA4) [%] | DC50 (SMARCA4) [nM] | Dmax (SMARCA2) [%] | DC50 (SMARCA2) [nM] | Selectivity in MV411 (SMARCA2) | SMARCA4 MSD MV411 degradation 24 h: average Dmax % (SMARCA4) | SMARCA2 MSD MV411 degradation 24 h: average Dmax % (SMARCA2) |
| --- | --- | --- | --- | --- | --- | --- | --- |
| Cc1ncsc1-c1ccc(CNC(=O)[C@@H]2C[C@@H](O)CN2C(=O)[C@@H](NC(=O)C2(F)CC2)C(C)(C)C)c(OC2CCN(Cc3cnc(N4CCc5[nH]c6nnc(-c7ccccc7O)cc6c5[C@H]4C)nc3)CC2)c1 (single isomer, unassigned) [I-42] | 70 to 90 | > 100 | 50 to 70 | 10 to 100 | C (C (10-100 fold)) | – | – |
| Cc1ncsc1-c1ccc(CNC(=O)[C@@H]2C[C@@H](O)CN2C(=O)[C@@H](NC(=O)C2(F)CC2)C(C)(C)C)c(OC2CCN(Cc3cnc(N4CCc5[nH]c6nnc(-c7ccccc7O)cc6c5[C@@H]4C)nc3)CC2)c1 (single isomer, unassigned) [I-43] | < 50 | > 100 | < 50 | > 100 | C (C (10-100 fold)) | – | – |
| Cc1ncsc1-c1ccc(CNC(=O)[C@@H]2C[C@@H](O)CN2C(=O)[C@@H](NC(=O)C2(F)CC2)C(C)(C)C)c(OCCCCN2CCN(c3cnc(N4CCN5c6cc(-c7ccccc7O)nnc6NC[C@H]5C4)nc3)CC2)c1 (single isomer, unassigned) [I-45] | > 90 | 1 to 10 | > 90 | < 1 | D (D (<10 fold)) | – | – |
| Cc1ncsc1-c1ccc(CNC(=O)[C@@H]2C[C@@H](O)CN2C(=O)[C@@H](NC(=O)C2(F)CC2)C(C)(C)C)c(OCCCCN2CCC(c3ccnc(N4CCN5c6cc(-c7ccccc7O)nnc6NC[C@H]5C4)n3)CC2)c1 (single isomer, unassigned) [I-46] | > 90 | 1 to 10 | > 90 | < 1 | D (D (<10 fold)) | – | – |
| C#Cc1ccc([C@H](C)NC(=O)[C@@H]2C[C@@H](O)CN2C(=O)[C@@H](NC(=O)[C@H]2CCC3(CC2)C[C@H](N2CCC(c4cnc(N5CCN6c7cc(-c8ccccc8O)nnc7NC[C@H]6C5)nc4)CC2)C3)C(C)(C)C)cc1 (single isomer, unassigned) [I-56] | 50 to 70 | > 100 | 70 to 90 | 1 to 10 | A (A (>500 fold)) | – | – |
| C#Cc1ccc([C@H](C)NC(=O)[C@@H]2C[C@@H](O)CN2C(=O)[C@@H](NC(=O)[C@H]2CCC3(CC2)C[C@H](N2CCC(c4cnc(N5CCN6c7cc(-c8ccccc8O)nnc7NC[C@H]6C5)nc4)CC2)C3)C(C)(C)C)cc1 (single isomer, unassigned) [I-57] | – | > 100 | – | 1 to 10 | B (B (>100-500 fold)) | D (D (<50% degradation)) | B (B (>70-90% degradation)) |
| C#Cc1ccc(CNC(=O)[C@@H]2C[C@@H](O)CN2C(=O)[C@@H](NC(=O)[C@H]2CC[C@H](c3ccc(-c4cnc(N5CCN6c7cc(-c8ccccc8O)nnc7NC[C@H]6C5)nc4)cc3)CC2)C(C)(C)C)cc1 [I-23] | < 50 | > 100 | 70 to 90 | 10 to 100 | C (C (10-100 fold)) | – | – |
| C#Cc1ccc(CNC(=O)[C@@H]2C[C@@H](O)CN2C(=O)[C@@H](NC(=O)[C@H]2CC[C@@H](c3ccc(-c4cnc(N5CCN6c7cc(-c8ccccc8O)nnc7NC[C@H]6C5)nc4)cc3)CC2)C(C)(C)C)cc1 [I-24] | > 90 | 1 to 10 | > 90 | < 1 | D (D (<10 fold)) | – | – |
